Experiment [1] has as its system human malignant U373 glioma cells. In words: Computer tomography, signal density of cell pellets. It counts as cell-based. The note with it: 260 μM, 20 min. The method, then: (§1) For CT and FACS human U373 glioma cells were grown under the same conditions in 75 cm^2 culture flasks (Corning Costar, Bodenheim, Germany) (70% confluency). Accutase™ (PAA laboratories, Pasching, Austria) was added to achieve detachment of the cells which were harvested and subsequently aliquoted into Eppendorf tubes (6×10^6 cells per tube). As in the investigations performed by fluorescence microscopy, the cells in the first tube served as a control (PBS only). The cells in the other tubes were incubated with 260 μM Ultravist, 260 μM TIBA in PBS and 26 μM, 260 μM and 2.6 mM conjugates 1-4 in PBS. After a 20 minute incubation period at 37° C. in an atmosphere of 5% CO2, the cells were washed three times in PBS and centrifuged at 800 rpm for 5 minutes.
The inner ear spiral CT protocol consisted of: tube voltage 120 KV, effective mAs 550, time of imaging TI: 1.5, SL 0.75/0.75/4.5, FOV: 50 0/52, kernel: U70, window: intervertebral disc.
3D-images were obtained using InSpace Software (Syngo CT 2006G) (Siemens AG, Erlangen, Germany).
(§2) After an incubation of 20 minutes at 37° C./5% CO2 the cells were washed three times with PBS buffer and centrifuged at 800 rpm (rounds per minute) for 5 minutes. The fluorescence was measured in Becton Dickinson FACSCalibur as described under 1.4. The computer tomography was performed as described under 1.5.1. The examinations were repeated two times. […]
An Orbita CT spiral was used: tube voltage 120 KV, effective mAs 550, time of imaging TI: 1.5, SL 0.75/0.75/4.5, FOV: 50 0/52, GT: 0.0, kernel: U70, window: intervertebral disc. 3D images were made with the InSpace Software (Syngo CT 2006G) (Siemens AG, Erlangen, Germany). […]

Experiment [2] concerns human vascular endothelial cells. The conditions noted are these: traditional contrast media; cited from earlier work.
The subject of experiment [3] is human malignant LN18 glioma cells. Put plainly: Cell viability / cell death (annexin-V-Alexa 568 binding, propidium iodide, FACS scatter morphology). In kind it is cell-based. The conditions noted are these: 260 μM, 20 min, substance alone. On the procedure: All measurements were performed on living, non-fixed cells. […] All measurements were performed on living cells. […] All measurements were performed on living cells in triplicates. […] All measurements were performed on living cells.

For experiment [4], the system named is human malignant U373 glioma cells. Put plainly: Uptake/staining of cells by FITC-labelled conjugates (fluorescence microscopy, CLSM, FACS, semi-thin sections). It counts as cell-based. The note with it: 260 μM. The method, then: Fluorescence was measured in a Becton Dickinson FACSCalibur. […] The investigations were performed in triplicate.
as §1
The FACS analysis was performed as described under 1.4.
(§3) The human malignant U373 and LN18 glioma cells were cultivated in 75 cm^2 culture flasks (Corning Costar) (70% confluency) under the conditions as described under 1.4, detached from the flask bottom with Accutase™ (PAA Laboratories) and in the following distributed on Eppendorf tubes (Eppendorf, Hamburg, Germany) (6×10^6 per tube). The cells in the first tube serve as a control (only PBS buffer only). The cells in the other ten tubes were each incubated with benzoic acid (BA), monoiodobenzoic acid (MIBA) or diiodobenzoic acid (DIBA) alone (260 μM), conjugate 3 alone (260 μM), conjugate 3 plus either BA, MIBA or DIBA (260 μM), respectively, and the conjugates 9, 10, and 11 alone. (260 μM).
After an incubation of 20 minutes at 37° C./5% CO2 the cells were washed three times with PBS buffer and centrifuged at 800 rpm (rounds per minute) for 5 minutes. The fluorescence was measured in Becton Dickinson FACSCalibur as described under 1.4. The computer tomography was performed as described under 1.5.1. The examinations were repeated two times.
(§4) For the CT and FACS examinations human LN-18 and U373 glioma cells were cultivated in 75 cm^2 culture flasks (Corning Costar) (70% confluency) (conditions as described under 1.4). Accutase™ (PAA Laboratories) was added to detach the cells from the bottom of the culture flasks. The cells were collected and then distributed on Eppendorf tubes (6×10^6 cells per tube). The cells in the first two tubes serve as a control (in each case only PBS, LN18 and U373 glioma cells, native). The cells in the other tubes (in each case LN18 and U373 glioma cells) were incubated with a 260 μM or 2.6 mM solution of the conjugate 12 for 20 minutes at 37° C. and 5% CO2 and in the following washed for three times with PBS buffer and centrifuged for 5 minutes with 800 rpm (rounds per minute). For a small amount of the cells it was tested by the MMT test (see 1.4) how many of the cells were still viable. The computer tomography of the cell centrifuges was performed with the Somatom Sensation 16 (Siemens).
(§5) The FACS analysis was performed as described under 1.4. The assay was repeated two times.
For the CT and FACS examinations human LN18 and U373 glioma cells were cultivated in 75 cm^2 culture flasks (70% confluency) (conditions as described under section 1). Accutase™ (PAA Laboratories) was added to detach the cell from the culture bottom. The cells were collected and then distributed on Eppendorf-tubes (6×10^6 cells per tube). […] The next three tubes were used for the coincubation of the cells either with trichlorobenzoic acid (TCBA), trifluorobenzoic acid (TFBA) or tribromophenyl Isocyanat (TBPI) and the NLS-FITC-conjugate 3 (260 μM). As control cells were used which were only either incubated with CIBA, FIBA, TBPI (in each case 260 μM in PBS) or with PBS-buffer (native control) alone. […] The computer tomography and FACS analysis of the cell centrifuges were performed as described in 1.5.1 or 1.4, respectively for three times. […]

The subject of experiment [5] is human malignant LN18 glioma cells. Put plainly: Computer tomography, signal density of cell centrifugates. The note with it: 260 μM, 20 min. In kind it is cell-based. On the procedure:
as §4, with “After an incubation of 20 minutes at 37° C./5% CO2 the cells were washed three times with PBS buffer and centrifuged at 800 rpm (rounds per minute) for 5 minutes. The fluorescence was measured in Becton Dickinson FACSCalibur as described under 1.4. The computer tomography was performed as described under 1.5.1. The examinations were repeated two times. For the” for “For the”, “16 (Siemens). An Orbita CT spiral was used: tube voltage 120 KV, effective mAs 550, time of imaging TI: 1.5, SL 0.75/0.75/4.5, FOV: 50 0/52, GT: 0.0, kernel: U70, window: intervertebral disc. 3D images were made with the InSpace Software (Syngo CT 2006G) (Siemens AG, Erlangen, Germany). […] Accutase™ (PAA Laboratories) was added to detach the cell from the culture bottom. The cells were collected and then distributed on Eppendorf-tubes (6×10^6 cells per tube).” for “16 (Siemens).”

The test system is the same in experiment [6]. Put plainly: Uptake/staining of cells by FITC-labelled conjugates (CLSM, FACS, semi-thin sections). The note with it: 260 μM; for nuclear staining of cells (CLSM), in words: 20 min; for heavily stained cells: FIGS. 8, 13-16; for staining of nucleoli in semi-thin sections (about 0.4 μm): after incubation. In kind it is cell-based. The method, then: as §3, §2, §5
For the CT and FACS examinations human LN18 and U373 glioma cells were cultivated in 75 cm^2 culture flasks (70% confluency) (conditions as described under section 1). Accutase™ (PAA Laboratories) was added to detach the cell from the culture bottom. The cells were collected and then distributed on Eppendorf-tubes (6×10^6 cells per tube). […] The next three tubes were used for the coincubation of the cells either with trichlorobenzoic acid (TCBA), trifluorobenzoic acid (TFBA) or tribromophenyl Isocyanat (TBPI) and the NLS-FITC-conjugate 3 (260 μM). As control cells were used which were only either incubated with CIBA, FIBA, TBPI (in each case 260 μM in PBS) or with PBS-buffer (native control) alone. […] The computer tomography and FACS analysis of the cell centrifuges were performed as described in 1.5.1 or 1.4, respectively for three times.
All measurements were performed on living cells.
All measurements were performed on living cells in triplicates.
A part of the cells which were stained for the FACS analysis, was fixed by paraformaldehyl with 2% Agar, dehydrogenized in ethanol, embedded in Lowicryl K4M (Polysciences, Eppelheim, Germany) and according to the information of the manufacturer UV-polymerised at room temperature. Semi-thin sections (about 0.4 μm) were cut and evaluated by means of fluorescence microscopy.

Entries after “also recorded” stand apart in the source; their conditions may differ.

With `COCC(=O)Nc1c(I)c(C(=O)NCC(O)CO)c(I)c(C(=O)N(C)CC(O)CO)c1I` (stereo not drawn) [Ultravist, Iopromid, reference compound], in experiment [1], the “CT signal density of cell pellets” value is “only low signal density values; also recorded: did not result in any increase in signal density”. Further, the “concentration at which apoptosis is induced” value (from here on “concentration”) in experiment [2] was 250 mg iodine per millilitre.
Take `CC(=O)Nc1c(I)c(NC(C)=O)c(I)c(C(=O)O)c1I` [diatrizoate]: the “concentration” value in experiment [2] is recorded as 250 mg iodine per millilitre.
For `CN(C(=O)CC(=O)N(C)c1c(I)c(C(=O)NC(CO)C(O)CO)c(I)c(C(=O)NC(CO)C(O)CO)c1I)c1c(I)c(C(=O)NC(CO)C(O)CO)c(I)c(C(=O)NC(CO)C(O)CO)c1I` (stereo not drawn) [iotrolan], the “concentration” value in experiment [2] is 250 mg iodine per millilitre.
Turning to `CNC(=O)c1c(I)c(C(=O)NCC(=O)Nc2c(I)c(C(=O)O)c(I)c(C(=O)NCCO)c2I)c(I)c(N(C)C(C)=O)c1I` [ioxaglate], the “concentration” value in experiment [2] is on record as 250 mg iodine per millilitre.
Turning to “PKKKRKVK(FITC)GGK(TBPI) (PKKKRKVKGGK; FITC, GGK linker, TBPI) [conjugate 15, FITC-labelled tribromophenyl isocyanate-NLS-conjugate]”, in experiment [3], the “cell death / vitality (annexin-V-Alexa 568, propidium iodide)” value (shortened to “cell death / vitality”) is “signs of cell death”. In addition, the “cell death / vitality” value in experiment [3] (listed as K15) is listed as “Alexa-annexin binds to the surface of the cells”. In addition, the “CT signal density of cell pellets” value in experiment [1] is listed as “did not result in an increase of the signal density”. Further, the “cells strongly stained by FITC, FACS histogram” value (from here on “cells strongly stained by FITC”) in experiment [4] is given as “clear increase of the cells which are strongly stained by FITC”. Besides, the “CT signal density of cell centrifugates” value in experiment [5] was “did not result in an increase of the signal density”. Also, in experiment [6], the “cells strongly stained by FITC” value is “clear increase of the cells which are strongly stained by FITC”; the heavily stained cells was found to be 78%; the “staining of nucleoli in semi-thin sections (about 0.4 μm)” value (shortened to “staining of nucleoli”) is “strongly stained; also recorded: accumulate in the nucleoli”. For the same compound, the “nuclear staining of cells (CLSM), in words” value (“nuclear staining of cells” below) in experiment [6] (listed as K15) is recorded as “strong staining of the nucleus in almost all cells; also recorded: nuclei of the LN18 glioma cells accumulate”.
For “PKKKRKVK(FITC)GGK(TCBA) (PKKKRKVKGGK; FITC, GGK linker, TCBA) [conjugate 14, FITC-labelled NLS with trichlorobenzoic acid]”, the “cell death / vitality” value in experiment [3] is “dead and signs of cell death”. Moreover, the “CT signal density of cell pellets” value in experiment [1] is “did not result in an increase of the signal density”. Also, the “cells strongly stained by FITC” value in experiment [4] is “shift of the histogram peak to the right”. Moreover, the “CT signal density of cell centrifugates” value in experiment [5] is “did not result in an increase of the signal density”. Besides, in experiment [6], the “cells strongly stained by FITC” value is “shift of the histogram peak to the right”; the “nuclear staining of cells” value is “almost all nuclei are stained”; the heavily stained cells came out at 78%; the “staining of nucleoli” value was “accumulate in the nucleoli”.
Turning to “PKKKRKVK(FITC)GGK(TFBA) (PKKKRKVKGGK; FITC, GGK linker, TFBA) [conjugate 13, FITC-labelled NLS with trifluorobenzoic acid]”, the “cell death / vitality” value in experiment [3] is on record as “no longer vital; also recorded: signs of cell death”. Moreover, in experiment [1], the “CT signal density of cell pellets” value is listed as “did not result in an increase of the signal density”. Further, in experiment [4], the “cells strongly stained by FITC” value was “shift of the histogram peak to the right”. Further, in experiment [5], the “CT signal density of cell centrifugates” value was “did not result in an increase of the signal density”. In experiment [6], the “cells strongly stained by FITC” value was “shift of the histogram peak to the right”; the “nuclear staining of cells” value is “stains a large number of cells in the nucleus”; the heavily stained cells turned out to be 78%; the “staining of nucleoli” value is “accumulate in the nucleoli”.
